{
  "source": "ChEMBL document CHEMBL3045125",
  "about": "“Isolation and Insecticidal Activity of Three Acetogenins from Seeds of Pond Apple, Annona glabra L” (1991)",
  "key": {"Callosobruchus chinensis [1]": {"tested_on": "Callosobruchus chinensis", "test": "Insecticidal activity against adult of Callosobruchus chinensis assessed as mortality at 1 ug/insect applied topically after 24 hr relative to control", "assay_type": "functional"}, "Callosobruchus chinensis [2]": {"tested_on": "Callosobruchus chinensis", "test": "Insecticidal activity against adult of Callosobruchus chinensis assessed as mortality at 0.1 ug/insect applied topically after 24 hr relative to control", "assay_type": "functional"}, "Callosobruchus chinensis [3]": {"tested_on": "Callosobruchus chinensis", "test": "Insecticidal activity against adult of Callosobruchus chinensis assessed as mortality at 5 ug/insect applied topically after 24 hr relative to control", "assay_type": "functional"}, "Callosobruchus chinensis [4]": {"tested_on": "Callosobruchus chinensis", "test": "Insecticidal activity against adult of Callosobruchus chinensis assessed as mortality at 0.5 ug/insect applied topically after 24 hr relative to control", "assay_type": "functional"}, "Tetranychus urticae": {"tested_on": "Tetranychus urticae", "test": "Insecticidal activity against adult of Tetranychus urticae (two-spotted spider mite) in kidney bean leaf assessed as egg hatching ability after 1 week", "assay_type": "functional, organism-based"}, "Nephotettix cincticeps": {"tested_on": "Nephotettix cincticeps", "test": "Insecticidal activity against 2nd-instar nymphs of Nephotettix cincticeps (green rice leafhopper) in rice seedlings assessed as lethality at 10 mg/ml after 1 week", "assay_type": "functional, organism-based"}, "Mamestra brassicae": {"tested_on": "Mamestra brassicae", "test": "Insecticidal activity against third-instar larvae of Mamestra brassicae in cabbage leaf assessed as feeding deterrent and growth inhibition at 10 mg/ml after 2 days", "assay_type": "functional, organism-based"}, "Crocidolomia": {"tested_on": "Crocidolomia", "test": "Insecticidal activity against second-instar larvae of Crocidolomia binotalis in cabbage leaf assessed as growth inhibition at 10 mg/ml after 2 days", "assay_type": "functional, organism-based"}, "[5]": {"tested_on": "Henosepilachna vigintioctopunctata", "test": "Insecticidal activity against second-instar larvae of Henosepilachna vigintioctopunctata assessed as lethality at 10 mg/ml measured everyday for 1 week", "assay_type": "functional, organism-based"}, "Plutella xylostella": {"tested_on": "Plutella xylostella", "test": "Insecticidal activity against 2nd-instar larvae of Plutella xylostella (diamondback moth) in cabbage leaf assessed as lethality and growth inhibition at 0.1 mg/ml after 2 days", "assay_type": "functional, organism-based"}},
  "note": "Activity calls are given as the source filed them. The rule behind the calls is not given here.",
  "data": [
    {"smiles": "CCCCCCCCCCC(O)C1CCC(C2CCC(C(O)CCCCCCCC[C@H](O)CC3=C[C@@H](C)OC3=O)O2)O1", "note": "(stereo partly drawn) [ASIMICIN]", "values": [
      {"measurement": "Activity", "setting": "Callosobruchus chinensis [1]", "value": 85, "unit": "%"},
      {"measurement": "Activity", "setting": "Callosobruchus chinensis [2]", "value": 15, "unit": "%"},
      {"measurement": "Activity", "setting": "Callosobruchus chinensis [3]", "value": 100, "unit": "%"},
      {"measurement": "Activity", "setting": "Callosobruchus chinensis [4]", "value": 60, "unit": "%"}
    ]},
    {"smiles": "CCCCCCCCCC[C@H](O)[C@H]1CC[C@H]([C@H]2CC[C@H]([C@H](O)CCCCCCCCCCCCC3=C[C@H](C)OC3=O)O2)O1", "note": "[BULLANIN]", "values": [
      {"measurement": "Activity", "setting": "Callosobruchus chinensis [1]", "value": 25, "unit": "%"},
      {"measurement": "Activity", "setting": "Callosobruchus chinensis [2]", "value": 0, "unit": "%"},
      {"measurement": "Activity", "setting": "Callosobruchus chinensis [3]", "value": 90, "unit": "%"},
      {"measurement": "Activity", "setting": "Callosobruchus chinensis [4]", "value": 10, "unit": "%"}
    ]},
    {"smiles": "CCCCCC[C@H](O)CCC[C@H](O)[C@H]1CC[C@H]([C@H]2CC[C@H]([C@H](O)CCCCCCCCCCCCC3=C[C@H](C)OC3=O)O2)O1", "note": "[SQUAMOCIN]", "values": [
      {"measurement": "Activity", "setting": "Callosobruchus chinensis [1]", "value": 29, "unit": "%"},
      {"measurement": "Activity", "setting": "Callosobruchus chinensis [2]", "value": 0, "unit": "%"},
      {"measurement": "Activity", "setting": "Tetranychus urticae", "value": "inactive"},
      {"measurement": "Activity", "setting": "Nephotettix cincticeps", "value": "Active"},
      {"measurement": "Activity", "setting": "Mamestra brassicae", "value": "Active"},
      {"measurement": "Activity", "setting": "Callosobruchus chinensis [3]", "value": 90, "unit": "%"},
      {"measurement": "Activity", "setting": "Crocidolomia", "value": "Active"},
      {"measurement": "Activity", "setting": "Callosobruchus chinensis [4]", "value": 20, "unit": "%"},
      {"measurement": "Activity", "setting": "[5]", "value": "Active"},
      {"measurement": "Activity", "setting": "Plutella xylostella", "value": "Active"}
    ]}
  ]
}
